From patent US20260297060A1, “COMPOUNDS FOR THE DEGRADATION OF MUTANT BRAF” (C4 THERAPEUTICS, INC., priority 2023, published 2026)
Each block holds one molecule with its values, some of them ahead of it.

Legend:
Format in all cases: in vivo, BALB/c nude mice
[1] = Example 9 pharmacokinetics assay for the PK and PD study Part I, II and III (plasma, tumor, liver); conditions: mouse, po, 100 mg/kg, p.o., single dose, ± SEM
Method: (§1) For the PK and PD study Part I, agents were administered to BALB/c nude mice bearing A375 human melanoma xenografts tumors. Dabrafenib, Compound 218 and Compound 157 were dosed via p.o. once on day 1. Dabrafenib was dosed at 100 mg/kg. Compound 218 and Compound 157 were dosed at 10 mg/kg.
For the PK and PD study Part II, agents were administered to BALB/c nude mice bearing A375 human melanoma xenografts tumors. Compound 133, Compound 144 and Compound 198 were dosed at 10 mg/kg via p.o. once on day 1.
For the PK and PD study Part III, agent was administered to BALB/c nude mice bearing A375 human melanoma xenografts tumors. Compound 204 were dosed at 10 mg/kg via p.o. once on day 1.
(§2) The plasma samples were collected at predetermined time points for PK analysis. The mice were euthanized at predetermined time points post the treatment. The blood samples were collected into the 1.5 mL Eppendorf tubes containing 15 μL of 0.5 M EDTA-K2. And then the anticoagulant blood samples were centrifuged at 2,500 g at 4° C. for 15 minutes. The plasma samples were separated into 2 aliquots. The 1st was used for PK analysis, and the 2nd served as backup. The samples were stored at −80° C. before bioanalysis.
(§3) The tumor samples were collected at predetermined time points for PK and WB analysis. The tumor was dissected out and split into 3 parts. The 1st part was used for PK analysis, the 2nd part was used for WB analysis and the last one served as backup for study. The samples were transferred into pre-labeled tubes and quickly froze in liquid nitrogen within 2 minutes after dissection. The samples were stored at −80° C. before bioanalysis.
(§4) Liver samples were collected at predetermined time points for PK analysis. The left lobe of the liver was dissected out and split into 2 parts. The 1st part was used for PK analysis and the 2nd part served as the backup for the study. The samples were transferred into pre-labeled tubes and quickly froze in liquid nitrogen within 2 minutes after dissection. The samples were stored at −80° C. before bioanalysis.
The harvested plasma, tumor and liver samples were processed for pharmacokinetics analysis by LC-MS/MS with a concentration range of 5.00-10,000 ng/mL for Compound 218, Compound 157 and Compound 133 in plasma, 0.500-1,000 ng/ml for Compound 218 in liver and tumor homogenate, 0.200-400 ng/mL for Compound 157, Dabrafenib and Compound 133 in liver and tumor homogenate, 0.500-1000 ng/mL for Dabrafenib and Compound 204 in plasma, 0.200-200 ng/mL for Compound 204 in liver and tumor homogenate, 20.0-20,000 ng/mL for Compound 144 and Compound 198 in plasma, 1.00-1,000 ng/mL for Compound 144 and Compound 198 in liver and tumor homogenate.

[2] = Example 7 pharmacokinetics assay for PKPD study (plasma, tumor, liver); conditions: mouse, po, 100 mg/kg, p.o., single dose
Method: as §1, with “study,” for “study Part I,”, “141, Compound 118, Compound 156,” for “218”, “180” for “157”, “dosed” for “dosed via”, “1. Known BRAF inhibitor Dabrafenib was used as a positive control.” for “1.”
as §2, §3, §4
The harvested plasma and liver samples were processed for pharmacokinetics analysis by LC-MS/MS with a concentration range of 0.500-1000 ng/mL for Dabrafenib, Compound 118 and Compound 180 in plasma, 0.100~200 ng/ml for Dabrafenib in Liver and tumor homogenate, 50.0~50,000 ng/mL for Compound 141 in plasma and Liver homogenate, 1.00-1000 ng/ml for Compound 141 in tumor homogenate, 2.00~2000 ng/mL for Compound 118 and Compound 180 in Liver and 0.200~200 ng/ml in tumor homogenate, 1.00~2000 ng/mL for Compound 156 in plasma, 0.500-1000 ng/ml in liver and 0.500-1,000 ng/ml in tumor homogenate.

[3] = Example 8 pharmacokinetics assay for efficacy study (plasma, liver); conditions: mouse, po, 35 mg/kg, p.o., QD × 21 days
Method: For efficacy study, agents were tested in the A375 human melanoma xenografts model. Compound 8, Compound 26, and Compound 38 were administered to BALB/c nude mice bearing A375 xenografts from day 0 and dosed p.o. twice per day (BID). Compound 8 and Compound 26 were dosed at 10 mg/kg for 21 days. Compound 38 was dosed at 10 mg/kg for 10 days. The known BRAF inhibitor encorafenib was used as a positive control. encorafenib was administered from day 1 and dosed p.o. daily (QD) for 21 days and dosed at 35 mg/kg.
as §2, with “analysis. For non-termination plasma collection, blood samples were collected into the 1.5 mL Eppendorf tubes containing 3 μL of 0.5 M EDTA-K2. For termination plasma collection, the” for “analysis. The”, “the treatment and the” for “the treatment. The”
as §4
The harvested plasma and liver samples were processed for pharmacokinetics analysis by LC-MS/MS with a concentration range of 2.0~2000 ng/mL for encorafenib in plasma and liver homogenate, 10.0-10,000 ng/mL for Compound 8 and Compound 38 in plasma and liver homogenate, 20.0~20,000 ng/mL for Compound 26 in plasma and liver homogenate.

[4] = liver, read-out: Mean Concentration in Liver
[5] = plasma, read-out: Mean Concentration in Plasma
[6] = tumor, read-out: Mean Concentration in Tumor
[7] = liver, read-out: Concentration in Liver (mean ± SEM)
[8] = plasma, read-out: Concentration in Plasma (mean ± SEM)
[9] = tumor, read-out: Concentration in Tumor (mean ± SEM)

concentration at 6 h [1, 4]: 1010 ± 111 ng/g
concentration at 12 h [1, 4]: 277 ± 125 ng/g
concentration at 1 h [1, 5]: 5920 ± 2380 ng/mL
concentration at 6 h [1, 5]: 259 ± 45.4 ng/mL
concentration at 12 h [1, 5]: 88.7 ± 42.7 ng/mL
concentration at 24 h [1, 5]: 1.09 ± 0.467 ng/mL
concentration at 1 h [1, 6]: 4920 ± 1490 ng/g
concentration at 6 h [1, 6]: 237 ± 4.91 ng/g
concentration at 12 h [1, 6]: 54 ± 13.5 ng/g
concentration at 24 h [1, 6]: 1.87 ± 0.9 ng/g
concentration at 6 h [2, 7]: 2450 ± 737 ng/g
concentration at 12 h [2, 7]: 1110 ± 453 ng/g
concentration at 1 h [2, 8]: 7370 ± 865 ng/mL
concentration at 6 h [2, 8]: 1140 ± 390 ng/mL
concentration at 12 h [2, 8]: 336 ± 137 ng/mL
concentration at 24 h [2, 8]: 3.88 ± 2.43 ng/mL
concentration at 1 h [2, 9]: 9520 ± 2050 ng/g
concentration at 6 h [2, 9]: 702 ± 341 ng/g
concentration at 12 h [2, 9]: 242 ± 96 ng/g
concentration at 24 h [2, 9]: 5.53 ± 0.951 ng/g
Compound: CC(C)(C)c1nc(-c2cccc(NS(=O)(=O)c3c(F)cccc3F)c2F)c(-c2ccnc(N)n2)s1 [Dabrafenib, dabrafenib, reference compound]

Compound: COC(=O)N[C@@H](C)CNc1nccc(-c2cn(C(C)C)nc2-c2cc(Cl)cc(NS(C)(=O)=O)c2F)n1 [Encorafenib, encorafenib, reference compound]
concentration at 6 h [3, 7]: 186 ± 87.2 ng/g
concentration at 6 h [3, 8]: 336 ± 150 ng/mL
